“Also recorded” adds a separate entry of the source.
Columns and labels:
RBC = experiment: Mechanical properties (flexibility) of RBCs during storage; format: cell-based; conditions: at 1 week, 3 weeks, 5 weeks and 6 weeks of storage
Source text: In this example, as shown in FIGS. 16(A)-(D), RBC flexibility is slowed for RBCs treated with NOnps and GSNO.

stored RBCs [1] = experiment: RBC glycolytic metabolism during storage over 42 days; format: cell-based; conditions: for ATP produced vs control / Adenine in stored blood vs control / Citrate in stored blood vs control / Glucose in stored blood vs control / Lactate produced vs control / Mannitol in stored blood vs control / Pyruvate produced vs control: over 42 days
Description: In this example, the glyocotic metabolic mechanism was tested in stored blood. […] The main metabolic pathway of RBC is glycolysis and is primarily fueled by glucose. Glucose enters a RBC and is metabolized to produce ATP, and also pyruvate which in turn is converted to lactate. […] This pathway serves primarily to reduce nicotinamide adenine dinucleotide phosphate (NADPH). In conjunction with the glutathione reductase/peroxidase system, NADPH maintains the sulfhydryl groups of globin in their reduced state.
In order to test RBC metabolism, four sets of stored RBCs were tested: RBCs treated with NO releasing nanoparticles (NOnp), RBCs treated with the S-nitrosothiol derivative of glutathione (GSNO), RBCs treated with NONOates (DTPANO), and a control group of RBCs that were not supplemented. GSNO, which due to its long half-life and ability to transnitrosate, has greater antimicrobial activity then NOnp alone against clinical isolates of gram positive and negative multi drug resistant pathogens. Given both the extended bioactive lifetime of GSNO compared to free NO and the potential differences in target tissues/cells and the success achieved with the NO releasing nanoparticle platform, it was undertaken to produce nanoparticles that were similar in character and structure, but with the capability of either releasing GSNO species or transferring NO via S-transnitrosation. FIGS. 8(A)-(D) show the behavior of various elements of the first step of the glycotic pathway over a period of 42 days. […] FIGS. 8(B)-(D) show the amount of adenine, mannitol, and citrate respectively. […] This is important because these components help RBCs resynthesize the energy carrier adenosine triphosphate (ATP). ATP is a key component in extending the shelf life of stored blood. FIGS. 9(A)-(D) depict the key components in the next step of the glycotic pathway, wherein ATP is created and pyruvate is produced and then converted to lactate. The longevity of stored blood increases as more ATP is produced and less pyruvate and lactate is produced. […] Overall, NOnp and GSNO treated RBC are much slower to lose initial metabolic markers of RBC health than both untreated RBCs and those treated with NONOates.

stored blood = experiment: Buildup of methemoglobin, plasma nitrite and plasma nitrate in stored blood over six weeks; format: cell-based; conditions: over a period of six weeks
Description: In this example, the buildup of methemoglobin (MetHb), plasma nitrite and plasma nitrate was also measured over a period of six weeks. […] Nitrite levels were measured because higher nitrate levels are associated with positive RBC health and functionality. […] NO supplementation limits the progressive loss of nitrite and nitrate in RBCs, and such loss of nitrite and nitrate has been correlated with an increase in oxidative damage.

stored RBCs [2] = experiment: Storage lesion parameters of stored RBCs over 42 days (2,3-DPG, potassium, pH, free hemoglobin, microparticles); format: cell-based, human, hamster, rat; conditions: for 2,3 DPG level during storage / Levels of free hemoglobin (hemolysis) during storage / Potassium levels during storage / pH (acidification) during storage: all species (human, hamster, rat), 42 days storage; for Microparticle formation in stored blood: human, hamster, rat blood
Description: NO releasing nanoparticles were added to the blood at 10 mg per 125 mL of whole blood. Stored blood was treated with the nanoparticles once every 48 hours at the above described dosing over a period of 21 days for the in vivo transfusion studies. The storage lesion studies were extended to a period of 6 weeks.
In this example, the procedure was substantially the same as Example 6.1, except that transfused blood was stored for 42 days, and included human, hamster, and rat blood. FIGS. 5(D)-(F) show potassium levels and hemolysis over a six week period.
Human RBC units were purchased from the San Diego Blood bank. Blood were preserved in blood collection bags and kept at 4° C.
Blood was obtained from donor rats (˜300 g) Animals were anaesthetized (pentobarbital 60 mg/kg ip) and a femoral catheter (PE-50) was implanted and blood was drawn into 10 mL syringes containing 1.5 mL of citrate, phosphate, dextrose adenine solution (CPDA-1). Blood was leukoreduced, by passing through a neonatal high efficiency leukocyte reduction filter Purecell NEO (Pall Company, East Hills, N.Y.). The leukoreduced blood was centrifuged for 10 minutes at 1350 rpm and supernatant was partially removed to achieve approximately 75% Hct. Packed cell were transferred under sterile conditions to a preservative free blood collection tube and kept at 4° C.
Blood was obtained from donor hamsters (˜80 g). Hamsters were anaesthetized (pentobarbital 60 mg/kg ip) and femoral catheter implanted. The blood from three hamsters was drawn into 10 mL syringes containing 1.5 mL CPDA-1, then leukoreduced as described before and centrifuged. Hamster packed cells were preserved in blood collection tube and kept at 4° C.

In the case of `NCCCN(CCCN)/[N+]([O-])=N/O` [DPTANO], the RBC flexibility (RBC) is reported as “did not vary substantially from that of untreated blood”, the “ATP produced vs control” value (stored RBCs [1]) is reported as “only produces slightly less than the control” and the “Adenine in stored blood vs control” value (stored RBCs [1]) is reported as “retained higher amounts of each component than the control”. The “Citrate in stored blood vs control” value (stored RBCs [1]) was “retained higher amounts of each component than the control”, the “Glucose in stored blood vs control” value (stored RBCs [1]) was “maintaining slightly higher amounts of glucose” and the “Lactate produced vs control” value (stored RBCs [1]) was “the control produces much more pyruvate and lactate”. The “Mannitol in stored blood vs control” value (stored RBCs [1]) was “retained higher amounts of each component than the control”, the “Pyruvate produced vs control” value (stored RBCs [1]) was “the control produces much more pyruvate and lactate” and the “Methemoglobin (MetHb) formation” value (stored blood) was “more met Hb formation; also recorded: increased the formation of met-hemoglobin”. The “2,3 DPG level during storage” value (stored RBCs [2]) was “prevented 2,3 DPG rapid decrease”, the “Levels of free hemoglobin (hemolysis) during storage” value (stored RBCs [2]) was “either did not significantly differentiate from the control, or performed worse” and the “Potassium levels during storage” value (stored RBCs [2]) was “either did not significantly differentiate from the control, or performed worse”. The “pH (acidification) during storage” value (stored RBCs [2]) was “either did not significantly differentiate from the control, or performed worse” and the “Microparticle formation in stored blood” value (stored RBCs [2]) was “faired similarly or worse than the control”.
For `N[C@@H](CCC(=O)N[C@@H](CSN=O)C(=O)NCC(=O)O)C(=O)O` [GSNO, S-nitrosothiol derivative of glutathione], the RBC flexibility (RBC) was “remained more flexible than untreated and DPTANO treated blood”, the “Glucose-6-phosphate dehydrogenase (G6PD) vs control” value (stored RBCs [1]; during storage) was “maintained or even enhanced” and the “Glyceraldehyde 3-phosphate dehydrogenase (GAPDH) vs control” value (stored RBCs [1]; during storage) was “maintained or even enhanced”. For the same compound, the “Hexokinase (HK) vs control” value (stored RBCs [1]; during storage) was “maintained or even enhanced”, the “Phosphofructokinase (PFK) vs control” value (stored RBCs [1]; during storage) was “maintained or even enhanced” and the “Pyruvate kinase (PK) vs control” value (stored RBCs [1]; during storage) was “maintained or even enhanced”. The “ATP produced vs control” value (stored RBCs [1]) was “produce more ATP than the control”, the “Adenine in stored blood vs control” value (stored RBCs [1]) was “retained higher amounts of each component than the control” and the “Citrate in stored blood vs control” value (stored RBCs [1]) was “retained higher amounts of each component than the control”. The “Glucose in stored blood vs control” value (stored RBCs [1]) was “maintaining slightly higher amounts of glucose”, the “Lactate produced vs control” value (stored RBCs [1]) was “the control produces much more pyruvate and lactate” and the “Mannitol in stored blood vs control” value (stored RBCs [1]) was “retained higher amounts of each component than the control”. For the same compound, the “Pyruvate produced vs control” value (stored RBCs [1]) was “the control produces much more pyruvate and lactate”, the “Methemoglobin (MetHb) formation” value (stored blood) was “did not generate significantly more MetHb than the control” and the “2,3 DPG level during storage” value (stored RBCs [2]) was “prevented 2,3 DPG rapid decrease”. For the same compound, the “Levels of free hemoglobin (hemolysis) during storage” value (stored RBCs [2]) was “did not increase the levels of free hemoglobin”, the “Potassium levels during storage” value (stored RBCs [2]) was “slowed down potassium levels” and the “pH (acidification) during storage” value (stored RBCs [2]) was “prevented rapid acidification”. For the same compound, the “Microparticle formation in stored blood” value (stored RBCs [2]) was “reduced microparticle formation”.

Source: patent publication US20170105407A1, “COMPOSITIONS AND METHODS FOR ENHANCING RED BLOOD CELL STORAGE TIME AND SURVIVABILITY USING NITRIC OXIDE RELEASING HYBRID HYDROGEL NANOPARTICLES” (ALBERT EINSTEIN COLLEGE OF MEDICINE, INC., priority 2014, published 2017)
